Reference: patent publication US11998595B2, “Telomerase polypeptide vaccine for treating cancer” (Ultimovacs AS, priority 2010, dated 2024)
Entries after “also recorded” stand apart in the source; their conditions may differ.

What was measured:
[1] = system: stage IV melanoma patients; experiment: Clinical course of vaccinated melanoma patients; format: in vivo, human; set-up: key to Clinical response: PD = Progressive disease; SD = Stable disease; PR = Partial response; CR = Complete response
Method: (§1) A comparison of the patients studied in Example 4 was carried out. In brief, seven patients were identified as clinical responders following a cancer diagnosis and vaccination with an hTERT vaccine. These patients were identified based on a combination of prolonged survival and clinical response. The clinical response could either be stable disease (SD), partial response (PR) or complete response (CR). The vaccinated melanoma patients were diagnosed with stage IV at the time of inclusion in the clinical trial, but had no brain metastases. Lung cancer patient P5 was diagnosed with stage IV, inoperable lung cancer and colon cancer patient P1 with late stage inoperable colon cancer. Lung cancer patient P6 was a stage IV lung cancer patient with a 12-week life expectancy. Pancreas cancer patient P1 had relapsed, inoperable pancreas cancer and a life expectancy of 8-10 months. Four of the patients (designated Melanoma P7-P8, Lung cancer P5 and Colon cancer P1) had each been vaccinated with the peptide GV1001 (SEQ ID NO. 10). The fifth patient (designated Lung cancer P6) and the sixth patient (designated Pancreas cancer 1) had been vaccinated with dendritic cells transfected with mRNA encoding hTERT. The seventh patient, Melanoma patient P9, had not been vaccinated at the time of the study and instead developed a spontaneous response following development of the cancer. (An eighth and final patient was also identified as a clinical responder but samples from this patient were not available for study.)
Six patients who were clinical non-responders following a melanoma cancer diagnosis and a GV1001 peptide (SEQ ID NO. 10) vaccination were studied. These patients were all stage IV melanoma patients and included in the same GV1001 vaccination trial as melanoma patients P7 and P8 who were long term survivors (see Example 6). […] Five of the patients also experienced progressive disease and one patient, designated Melanoma P3, experienced some stabilization of the disease but still had short survival. The proliferative T-cell responses of each patient to a series of peptides were determined in the same manner as in Example 1, at one time point. The peak response of each patient during the study period to peptide GV1001 is also shown which confirms that each patient responded immunologically to GV1001 vaccination.
(§2) The patients were classed as either clinical responders or clinical non-responders based on their clinical response which included stable disease (SD), tumour regression (PR or CR) and unexpectedly long survival time. Both clinical responders and clinical non-responders were selected from the same or similar vaccination trials.

[2] = system: stage IV lung cancer patients; experiment: Clinical course of vaccinated lung cancer patients; format: in vivo, human; set-up: key to Clinical response: PD = Progressive disease; SD = Stable disease; PR = Partial response; CR = Complete response
Method: as §1
Four patients who were clinical non-responders following a lung cancer diagnosis and a GV1001 (SEQ ID NO. 10) peptide vaccination were studied. These patients were all stage IV lung cancer patients vaccinated with GV1001. […] The proliferative T-cell responses of each patient to a series of peptides were determined in the same manner as in Example 1, at one time point. The peak response of each patient during the study period to peptide GV1001 is also shown which confirms that each patient responded immunologically to GV1001 vaccination.
as §2

**Q.** With “EARPALLTSRLRFIPK (listed as Homo sapiens) [GV1001]” as the sequence, how does the “Clinical Responder” value ([1]; patient Melanoma P1) read?
**A.** No

**Q.** And the Clinical response ([1]; patient Melanoma P1)?
**A.** PD

**Q.** And the “Survival (Months)” value ([1]; patient Melanoma P1)?
**A.** 10 Months

**Q.** And the “Vaccine-specific T cell response at time-point tested” value (“Vaccine-specific T cell response” for short) ([1]; patient Melanoma P1)?
**A.** Yes

**Q.** And the “Clinical Responder” value ([1]; patient Melanoma P2)?
**A.** No

**Q.** What about the Clinical response ([1]; patient Melanoma P2) of the same sequence?
**A.** PD

**Q.** What about the “Survival (Months)” value ([1]; patient Melanoma P2) of the same sequence?
**A.** 9 Months

**Q.** What about the “Vaccine-specific T cell response” value ([1]; patient Melanoma P2) of the same sequence?
**A.** Yes

**Q.** What about the “Clinical Responder” value ([1]; patient Melanoma P3) of the same sequence?
**A.** No

**Q.** And the Clinical response ([1]; patient Melanoma P3)?
**A.** SD

**Q.** And the “Survival (Months)” value ([1]; patient Melanoma P3)?
**A.** 10 Months

**Q.** What about the “Vaccine-specific T cell response” value ([1]; patient Melanoma P3) of the same sequence?
**A.** Yes

**Q.** What about the “Clinical Responder” value ([1]; patient Melanoma P4) of the same sequence?
**A.** No

**Q.** What about the Clinical response ([1]; patient Melanoma P4) of the same sequence?
**A.** PD

**Q.** What about the “Survival (Months)” value ([1]; patient Melanoma P4) of the same sequence?
**A.** 8 Months

**Q.** And the “Vaccine-specific T cell response” value ([1]; patient Melanoma P4)?
**A.** Yes

**Q.** What about the “Clinical Responder” value ([1]; patient Melanoma P5) of the same sequence?
**A.** No

**Q.** And the Clinical response ([1]; patient Melanoma P5)?
**A.** PD

**Q.** What about the “Survival (Months)” value ([1]; patient Melanoma P5) of the same sequence?
**A.** 12 Months

**Q.** And the “Vaccine-specific T cell response” value ([1]; patient Melanoma P5)?
**A.** Yes

**Q.** And the “Clinical Responder” value ([1]; patient Melanoma P6)?
**A.** No

**Q.** And the Clinical response ([1]; patient Melanoma P6)?
**A.** PD

**Q.** What about the “Survival (Months)” value ([1]; patient Melanoma P6) of the same sequence?
**A.** 8 Months

**Q.** What about the “Vaccine-specific T cell response” value ([1]; patient Melanoma P6) of the same sequence?
**A.** Yes

**Q.** And the “Clinical Responder” value ([1]; patient Melanoma P7)?
**A.** Yes

**Q.** And the Clinical response ([1]; patient Melanoma P7)?
**A.** alive, PR

**Q.** What about the “Vaccine-specific T cell response” value ([1]; patient Melanoma P7) of the same sequence?
**A.** Yes

**Q.** And the “Survival (Months)” value ([1]; patient Melanoma P7, + signifies that the patient is still alive)?
**A.** 65+ Months

**Q.** And the “Clinical Responder” value ([1]; patient Melanoma P8)?
**A.** Yes

**Q.** And the “Survival (Months)” value ([1]; patient Melanoma P8)?
**A.** 21 Months

**Q.** What about the “Vaccine-specific T cell response” value ([1]; patient Melanoma P8) of the same sequence?
**A.** Yes

**Q.** And the Clinical response ([1]; patient Melanoma P8, TTP = time to progression)?
**A.** increased; also recorded: TTP, PR

**Q.** And the “Clinical Responder” value ([2]; patient Lung ca P1)?
**A.** No

**Q.** And the Clinical response ([2]; patient Lung ca P1)?
**A.** PD

**Q.** And the “Survival (Months)” value ([2]; patient Lung ca P1)?
**A.** 14 Months

**Q.** What about the “Vaccine-specific T cell response” value ([2]; patient Lung ca P1) of the same sequence?
**A.** Yes

**Q.** And the “Clinical Responder” value ([2]; patient Lung ca P2)?
**A.** No

**Q.** And the Clinical response ([2]; patient Lung ca P2)?
**A.** PD

**Q.** And the “Survival (Months)” value ([2]; patient Lung ca P2)?
**A.** 6 Months

**Q.** What about the “Vaccine-specific T cell response” value ([2]; patient Lung ca P2) of the same sequence?
**A.** Yes

**Q.** What about the “Clinical Responder” value ([2]; patient Lung ca P3) of the same sequence?
**A.** No

**Q.** What about the “Survival (Months)” value ([2]; patient Lung ca P3) of the same sequence?
**A.** 20 Months

**Q.** What about the “Vaccine-specific T cell response” value ([2]; patient Lung ca P3) of the same sequence?
**A.** Yes

**Q.** And the “Clinical Responder” value ([2]; patient Lung ca P4)?
**A.** No

**Q.** And the “Survival (Months)” value ([2]; patient Lung ca P4)?
**A.** 10 Months

**Q.** What about the “Vaccine-specific T cell response” value ([2]; patient Lung ca P4) of the same sequence?
**A.** Yes

**Q.** What about the “Clinical Responder” value ([2]; patient Lung ca P5) of the same sequence?
**A.** Yes

**Q.** And the Clinical response ([2]; patient Lung ca P5)?
**A.** alive, CR

**Q.** What about the “Vaccine-specific T cell response” value ([2]; patient Lung ca P5) of the same sequence?
**A.** Yes

**Q.** What about the “Survival (Months)” value ([2]; patient Lung ca P5, + signifies that the patient is still alive) of the same sequence?
**A.** 106+ Months
